Assay results: patent US12240844B2 (Voronoi, Inc., priority 2019, dated 2025)

Tests used:
Assay type in all cases: biochemical
LRRK2 (G2019S) = LRRK2 (G2019S) (Homo sapiens, UniProt Q5S007, G2019S); experiment: LRRK2 G2019S enzyme inhibition, ADP-Glo kinase assay; parameters: purchased SignalChem L10-12GG
Description: (§1) In order to evaluate the inhibitory activity of the compounds according to the present invention on LRRK2, LRRK2 (G2019S), DYRK1, CLK1 and TTK kinases, the following experiment was performed.
Example compounds were reacted with the purified human LRRK2 G2019S (L10-12GG, SignalChem) enzyme to evaluate the enzyme inhibitory ability as follows. The reaction buffer was used as the composition of 40 mM Tris-HCl pH7.4, 20 mM MgCl2, 0.5 mg/ml BSA and 50 μM DTT, and the reaction of all test materials was performed on the reaction buffer. The compound was diluted with 10 mM DMSO stock in 12 steps by a serial dilution method, and the enzyme activity was measured at the final compound concentrations of 50, 10, 2, 0.4, 0.08, 0.016, 0.0032, 0.00064, 0.000128, 0.0000256, 0.00000512 and 0.000001024 μM. In the test, the human LRRK2 G2019S (16 ng) enzyme was reacted with the purified ATP (25 μM) and an enzyme substrate (0.2 μg) at 25° C. for 2 hours, and then the enzyme activity was identified using the in vitro ADP-Glo™ kinase assay (promega). The enzyme activity reaction liquid, an ADP-Glo reaction liquid and an enzyme potency detection solution were reacted in a ratio of 2:2:1, and the degree of inhibition of enzyme activity was measured by Luminescence. The degree of inhibition of enzyme activity according to the treatment concentrations of the respective compounds was calculated based on the fluorescence of the enzyme activity of a solvent control group that was not treated with the compound, where the concentration of each compound to inhibit enzyme activity inhibition by 50% was determined as an IC50 (nM) value and obtained using Prism (Version 5.01, GraphPad) software.
(§2) In the table below, the following designations were used for the evaluation of enzyme inhibitory ability.

[1] = molecular target: T1, human GST-DYRK1A (full length) (Homo sapiens, UniProt Q13627); experiment: GST-DYRK1A enzyme inhibition, ADP-Glo kinase assay; details: read-out: DYRK1 IC50
T1 construct: purified human GST-DYRK1A (full length, Thermo scientifics) enzyme; GST; purchased Thermo scientifics
Description: as §1
(§3) Example compounds were reacted with the purified human GST-DYRK1A (full length, Thermo scientifics) enzyme to evaluate the enzyme inhibitory ability as follows. As the reaction buffer, the composition of 40 mM Tris-HCl pH 7.4, 20 mM MgCl2, 0.5 mg/mL BSA, and 50 uM DTT was used, and the reaction of all test materials was performed on the reaction buffer. During the test, the human GST-DYRK1A (full length, 10 ng) enzyme, the purified ATP (10 uM), and a specific substrate solution were reacted at 25° C. for 1 hour, and then the enzyme activity was identified using the in vitro ADP-Glo™ kinase assay (promega). Luminescence was measured by reacting the enzyme activity reaction solution, an ADP-Glo reaction solution and the enzyme potency detection solution in a ratio of 2:2:1. The degree of inhibition of enzyme activity according to the treatment concentrations of the respective compounds was calculated based on the fluorescence of the enzyme activity of a solvent control group that was not treated with the compound, where the concentration of each compound to inhibit enzyme activity inhibition by 50% was determined as an IC50 (nM) value. The IC50 of each compound was determined in triplicate data sets and obtained using Prism (version 7.01, GraphPad) software.
as §2

human GST-CLK1 (129-end) = molecular target: T2, human GST-CLK1 (129-end) (Homo sapiens, UniProt P49759); experiment: GST-CLK1 enzyme inhibition, ADP-Glo kinase assay; details: ATP 10 uM
T2 construct: purified human GST-CLK1 (129-end, Signalchem) enzyme; GST; purchased Signalchem
T2 sequence (P49759 129-484 limits assumed): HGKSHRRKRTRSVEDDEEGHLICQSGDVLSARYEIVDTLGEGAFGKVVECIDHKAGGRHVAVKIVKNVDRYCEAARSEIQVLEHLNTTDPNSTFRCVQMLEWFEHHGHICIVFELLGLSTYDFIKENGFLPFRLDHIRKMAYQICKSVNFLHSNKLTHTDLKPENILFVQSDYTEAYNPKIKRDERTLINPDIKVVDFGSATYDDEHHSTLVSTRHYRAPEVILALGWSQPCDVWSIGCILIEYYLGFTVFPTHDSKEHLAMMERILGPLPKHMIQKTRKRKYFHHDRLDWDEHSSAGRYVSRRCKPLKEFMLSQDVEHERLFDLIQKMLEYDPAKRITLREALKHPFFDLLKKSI
Description: as §1
as §3, with “GST-CLK1 (129-end, Signalchem)” for “GST-DYRK1A (full length, Thermo scientifics)”, “GST-CLK1 (129-end, 3” for “GST-DYRK1A (full length, 10”
as §2

LRRK2 (G2019S), sequence (Q5S007 970-2527 G2019S limits assumed): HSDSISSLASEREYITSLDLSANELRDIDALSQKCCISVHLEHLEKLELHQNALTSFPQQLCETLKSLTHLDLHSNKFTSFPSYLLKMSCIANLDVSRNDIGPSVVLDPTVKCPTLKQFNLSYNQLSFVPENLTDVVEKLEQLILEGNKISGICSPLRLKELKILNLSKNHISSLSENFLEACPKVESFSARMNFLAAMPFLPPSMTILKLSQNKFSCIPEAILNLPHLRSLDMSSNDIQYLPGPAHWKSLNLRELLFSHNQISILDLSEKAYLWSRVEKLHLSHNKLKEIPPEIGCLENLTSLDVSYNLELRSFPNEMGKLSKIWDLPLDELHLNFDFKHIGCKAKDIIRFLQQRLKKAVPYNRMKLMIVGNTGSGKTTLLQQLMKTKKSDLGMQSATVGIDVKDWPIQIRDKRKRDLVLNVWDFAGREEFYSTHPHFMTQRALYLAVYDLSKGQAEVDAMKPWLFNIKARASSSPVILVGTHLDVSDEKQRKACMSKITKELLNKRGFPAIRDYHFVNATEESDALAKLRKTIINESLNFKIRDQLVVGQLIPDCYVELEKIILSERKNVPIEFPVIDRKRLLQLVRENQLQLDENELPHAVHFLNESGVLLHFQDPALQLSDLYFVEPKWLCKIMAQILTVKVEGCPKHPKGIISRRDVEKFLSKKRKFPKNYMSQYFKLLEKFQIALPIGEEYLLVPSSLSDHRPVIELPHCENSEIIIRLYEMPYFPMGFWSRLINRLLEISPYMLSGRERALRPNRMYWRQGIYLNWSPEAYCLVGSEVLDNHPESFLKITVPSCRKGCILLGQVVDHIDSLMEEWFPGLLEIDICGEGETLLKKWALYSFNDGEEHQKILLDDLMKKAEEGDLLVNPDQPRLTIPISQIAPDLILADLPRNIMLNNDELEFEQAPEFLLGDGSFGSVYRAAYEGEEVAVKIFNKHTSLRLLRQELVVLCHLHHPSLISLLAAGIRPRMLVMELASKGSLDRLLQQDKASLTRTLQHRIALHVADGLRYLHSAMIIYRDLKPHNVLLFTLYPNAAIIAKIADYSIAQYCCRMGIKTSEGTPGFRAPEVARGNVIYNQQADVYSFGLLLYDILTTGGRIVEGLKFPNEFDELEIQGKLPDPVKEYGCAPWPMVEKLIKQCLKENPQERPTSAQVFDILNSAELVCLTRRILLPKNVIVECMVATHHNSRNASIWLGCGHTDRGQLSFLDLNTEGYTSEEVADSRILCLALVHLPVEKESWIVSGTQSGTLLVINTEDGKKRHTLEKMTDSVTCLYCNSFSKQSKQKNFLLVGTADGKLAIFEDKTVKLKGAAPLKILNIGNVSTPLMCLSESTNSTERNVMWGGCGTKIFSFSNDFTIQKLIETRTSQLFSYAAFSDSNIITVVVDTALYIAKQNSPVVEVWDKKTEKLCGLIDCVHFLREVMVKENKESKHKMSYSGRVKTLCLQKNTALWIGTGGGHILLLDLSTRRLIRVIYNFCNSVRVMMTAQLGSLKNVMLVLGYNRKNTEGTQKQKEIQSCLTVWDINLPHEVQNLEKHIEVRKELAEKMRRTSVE

Structure (SMILES) | IC50 (LRRK2 (G2019S)) | IC50 [1] | IC50 (human GST-CLK1 (129-end))
COc1cc(S(=O)(=O)N2CCOCC2)ccc1Nc1cc(NCCS(C)(=O)=O)c2cc[nH]c2n1 [Example 17, N^6-(2-methoxy-4-(morpholinosulfonyl)phenyl)-N^4-(2-(methylsulfonyl)ethyl)-1H-pyrrolo[2,3-b]pyridine-4,6-diamine] | 301 to 1000 nM | 301 to 1000 nM | 301 to 1000 nM
CCCNc1cc(Nc2ccc(S(=O)(=O)N3CCOCC3)cc2OC)nc2[nH]cc(Cl)c12 [Example 66, 3-chloro-N^6-(2-methoxy-4-(morpholinosulfonyl)phenyl)-N^4-propyl-1H-pyrrolo[2,3-b]pyridine-4,6-diamine] | 301 to 1000 nM | 301 to 1000 nM | 301 to 1000 nM
CCCNc1cc(Nc2ccc(S(=O)(=O)N3CCOCC3)cc2OC)nc2[nH]ccc12 [Example 12, N^6-(2-methoxy-4-(morpholinosulfonyl)phenyl)-N^4-propyl-1H-pyrrolo[2,3-b]pyridine-4,6-diamine 2,2,2-trifluoroacetate] | < 100 nM | 301 to 1000 nM | 301 to 1000 nM
COc1cc(S(=O)(=O)N2CCOCC2)ccc1Nc1cc(NCCS(C)(=O)=O)c2c(Cl)c[nH]c2n1 [Example 72, 3-chloro-N^6-(2-methoxy-4-(morpholinosulfonyl)phenyl)-N^4-(2-(methylsulfonyl)ethyl)-1H-pyrrolo[2,3-b]pyridine-4,6-diamine] | 301 to 1000 nM | 301 to 1000 nM | 301 to 1000 nM
O=C(c1ccc(Nc2cc(NC3CC3)c3cc[nH]c3n2)c2c1OCCO2)N1CCOCC1 [Example 7, (8-((4-(cyclopropylamino)-1H-pyrrolo[2,3-b]pyridin-6-yl)amino)-2,3-dihydrobenzo [b] [1,4]dioxin-5-yl)(morpholino) methanone] | < 100 nM | 301 to 1000 nM | 301 to 1000 nM
COc1cc(S(=O)(=O)N2CCC(N3CCOCC3)CC2)ccc1Nc1cc(NC2CC2)c2c(Cl)c[nH]c2n1 [Example 76, 3-chloro-N^4-cyclopropyl-N^6-(2-methoxy-4-((morpholinopiperidin-1-yl)sulfonyl)phenyl)-1H-pyrrolo[2,3-b]pyridine-4,6-diamine] | < 100 nM | 301 to 1000 nM | 301 to 1000 nM
COc1cc(S(=O)(=O)N2CCC(N3CCOCC3)CC2)ccc1Nc1cc(NC2CCCCC2)c2cc[nH]c2n1 [Example 23, N^4-cyclohexyl-N^6-(2-methoxy-4-((4-morpholinopiperidin-1-yl)sulfonyl)phenyl)-1H-pyrrolo[2,3-b]pyridine-4,6-diamine] | 301 to 1000 nM | 301 to 1000 nM | 301 to 1000 nM
CC(C)Nc1cc(Nc2ccc(C(=O)N3CCOCC3)c3c2OCCO3)nc2[nH]cc(Cl)c12 [Example 59, (8-((3-chloro-4-(isopropylamino)-1H-pyrrolo[2,3-b]pyridin-6-yl)amino)-2,3-dihydrobenzo [b] [1,4]dioxin-5-yl)(morpholino) methanone] | 301 to 1000 nM | 301 to 1000 nM | 301 to 1000 nM
COc1cc(S(C)(=O)=O)ccc1Nc1cc(NC2CCCCC2)c2cc[nH]c2n1 [Example 30, N^4-cyclohexyl-N^6-(2-methoxy-4-(methylsulfonyl)phenyl)-1H-pyrrolo[2,3-b]pyridine-4,6-diamine] | 301 to 1000 nM | 301 to 1000 nM | 301 to 1000 nM
CC(C)Nc1cc(Nc2ccc(C(=O)N3CCOCC3)c3c2OCCO3)nc2[nH]ccc12 [Example 5, (8-((4-(isopropylamino)-1H-pyrrolo[2,3-b]pyridin-6-yl)amino)-2,3-dihydrobenzo[b] [1,4]dioxin-5-yl)(morpholino) methanone] | < 100 nM | 301 to 1000 nM | 301 to 1000 nM
CCNc1cc(Nc2ccc(S(=O)(=O)N3CCOCC3)cc2OC)nc2[nH]ccc12 [Example 11, N^4-ethyl-N^6-(2-methoxy-4-(morpholinosulfonyl)phenyl)-1H-pyrrolo[2,3-b]pyridine-4,6-diamine 2,2,2-trifluoroacetate] | 101 to 300 nM | 301 to 1000 nM | 301 to 1000 nM
CS(=O)(=O)CCNc1cc(Nc2ccc(C(=O)N3CCOCC3)c3c2OCCO3)nc2[nH]cc(Cl)c12 [Example 63, (8-((3-chloro-4-((2-(methylsulfonyl)ethyl)amino)-1H-pyrrolo[2,3-b]pyridin-6-yl)amino)-2,3-dihydrobenzo[b] [1,4]dioxin-5-yl)(morpholino) methanone] | < 100 nM | 301 to 1000 nM | 301 to 1000 nM
CCNc1cc(Nc2ccc(P3(=O)CCN(Cc4ccc(OC)cc4OC)CC3)cn2)nc2[nH]cc(C(F)(F)F)c12 [Example 267, 1-(2,4-dimethoxybenzy 1)-4-(6-((4-(ethylamino)-3-(trifluoromethyl)-1H-pyrrolo[2,3-b]pyridin-6-yl)amino)pyridin-3-yl)-1,4-azaphosphinane 4-oxide] | < 100 nM | < 100 nM | < 100 nM
CCNc1cc(Nc2ccc(C(=O)N3OCC[C@@H]3c3cc(F)cc(F)c3)c3c2OCC3)nc2[nH]cc(C(F)(F)F)c12 [Example 245, (R)-(3-(3,5-difluorophenyl)isoxazolidin-2-yl)(7-((4-(ethylamino)-3-(trifluoromethyl)-1H-pyrrolo[2,3-b]pyridin-6-yl)amino)-2,3-dihydrobenzofuran-4-yl)methanone] | 301 to 1000 nM | 301 to 1000 nM | 301 to 1000 nM
CNc1cc(Nc2ccc(S(=O)(=O)N3CCC(N4CCOCC4)CC3)cc2OC)nc2[nH]cc(Cl)c12 [Example 73, 3-chloro-N^6-(2-methoxy-4-((morpholinopiperidin-1-yl)sulfonyl)phenyl)-N^4-methyl-1H-pyrrolo[2,3-b]pyridine-4,6-diamine] | < 100 nM | 301 to 1000 nM | 301 to 1000 nM
C=CCNc1cc(Nc2ccc(C(=O)N3CC[C@@H](N4CCOCC4)C3)c3c2OCC3)nc2[nH]cc(C(F)(F)F)c12 [Example 261, (R)-(7-((4-(allylamino)-3-(trifluoromethyl)-1H-pyrrolo[2,3-b]pyridin-6-yl)amino)-2,3-dihydrobenzofuran-4-yl)(3-morpholinopyrrolidin-1-yl)methanone] | < 100 nM | 101 to 300 nM | < 100 nM
COc1cc(S(C)(=O)=O)ccc1Nc1cc(NC2CC2)c2c(Cl)c[nH]c2n1 [Example 84, 3-chloro-N^4-cyclopropyl-N^6-(2-methoxy-4-(methylsulfonyl)phenyl)-1H-pyrrolo[2,3-b]pyridine-4,6-diamine] | 301 to 1000 nM | 301 to 1000 nM | 301 to 1000 nM
CS(=O)(=O)CCNc1cc(Nc2ccc(C(=O)N3CCOCC3)c3c2OCCO3)nc2[nH]ccc12 [Example 9, (8-((4-((2-(methylsulfonyl)ethyl)amino)-1H-pyrrolo[2,3-b]pyridin-6-yl)amino)-2,3-dihydrobenzo[b] [1,4]dioxin-5-yl)(morpholino) methanone] | < 100 nM | 301 to 1000 nM | 301 to 1000 nM
